Test system: K/B×N serum induced arthritis in C57BL/6 mice
Assay: Sustained K/B×N serum induced arthritis, transfer of monocytes from arthritic mice incubated with MCTR3
Type: in vivo, mouse
Description: (C-D) K/B×N serum (100 μL, i.p.) was administered to C57BL/6 mice on day 0, 2 and 9 to induce and prolong inflammatory arthritis and, on day 12, mice were treated i.v. with 2×10^6 monocytes isolated from arthritic mice and incubated with either vehicle (PBS+0.1% EtOH) or 1 nM MCTR3 for 90 min at 37° C. Disease course was monitored daily by assessing C) clinical scores and D) oedema. Results are mean±SEM. and expressed as percent change from day of treatment. n=9 per group from two distinct experiments. (E) On day 22 hind paws were harvested joints were fixed, sectioned, stained using H&E stain and leukocyte infiltration evaluated. Top and centre panels present representative images from each experimental group; bottom panel Quantitation of the scores in each of the group. Results are mean±SEM. n=8 mice per group. Statistical differences were evaluated using Mann-Whitney U test. IFP=intrapatellar fat, M=meniscus, TB=Tibia, PF=Pannus formation, arrows denote leukocyte infiltration. (F-G) Paws were harvested 10 days after treatment and lipid mediator profiles were determined using LC-MS/MS-based lipid mediator profiling and evaluated using PLS-DA. (F) scores plot with highlighted regions denoting the clusters representing cells from each group (G) VIP scores for top 15 mediators. Each dot in the score plot represents a separate mouse.
FIG. 4: Regulation of joint reparative pathways in mice receiving MCTR3-trained monocytes. K/B×N serum (100 μL, i.p.) was administered to C57BL/6 mice on day 0, 2 and 9 to induce and prolong inflammatory arthritis and, on day 12, mice were treated i.v. with 2×10^6 monocytes isolated from arthritic mice and incubated with either vehicle (PBS+0.1% EtOH) or 1 nM MCTR3 for 90 min. (A-C) On day 22 hind paws were harvested, fixed, and stained to evaluate A) proteoglycan content using Safranin-O staining; B) Col 2 and C) Col X expression was evaluated using immunofluorescence. Left panels present representative images from each experimental group, right panels provide a quantitative evaluation of the staining. Results are expressed as percent change vs Monocyte group. n=7-8 mice per group. Statistical differences were evaluated using Wilcoxon signed rank test. (D-I) Hind paws were also collected on day 22 to evaluate the expression of the indicated genes was evaluated using quantitative realtime PCR. Results are from n=5 mice per group. Statistical differences were evaluated using Mann Whitney-U test.
FIG. 5: MCTR3 reprograms the arthritic monocyte-derive macrophage transcriptome. A-B) Arthritis was induced and prolonged in C57BL/6 mice by administering 100 μL K/B×N serum i.p. on day 0, 2 and 9. Mice were treated on day 12 i.v. with 2×10^6 monocytes isolated from arthritic mice and incubated either with vehicle (PBS+0.1% DMSO) or 10 μM RG108, a DNMT inhibitor, for 15 min and then with a vehicle (PBS+0.1% EtOH) or 1 nM MCTR3 for 90 min (37° C.). Disease course was monitored daily by assessing A) clinical scores and B) oedema. Results are mean±SEM and expressed as percent change from day of treatment. n=10 mice per group. Statistical differences were evaluated using Two-way ANOVA. (C-E) K/B×N serum (100 μL, i.p.) was administered to mice on days 0, 2 and 9 to induce and prolong inflammatory arthritis. On day 12, mice were treated i.v. with 2×10^6 monocytes isolated from arthritic mice that were previously incubated with either vehicle (PBS+0.1% EtOH) or 1 nM MCTR3 for 90 min. Cells were isolated from paw joints on day 22, sorted for CD45^+ cells and single cell RNA sequencing was performed. […] Results are from n=4 mice per group. (F-G) Monocytes were isolated from human healthy volunteers, these cells were then incubated with GM-CSF (7 days, 37° C.) then with either Vehicle or MCTR3 (1 nM, 37° C.). Cells were lysed and the phosphoproteome determined using mass spectrometry. […]

[1] = 200 μg nor-NOHA i.p. daily for 10 days from day 12
[2] = 200 μg nor-NOHA i.p. daily, mice given MCTR3-reprogrammed monocytes

N=C(NO)NCC[C@H](N)C(=O)O [nor-NOHA, N^ω-hydroxy-nor-L-arginine]
clinical scores in mice given MCTR3-reprogrammed monocytes [1]: increase
oedema in mice given MCTR3-reprogrammed monocytes [1]: increase
upregulation of Dbl in PKH67+ CD64+ cells [2]: reversed
upregulation of TGF-β1 in PKH67+ CD64+ cells [2]: reversed
